Experimental data taken from ChEMBL document CHEMBL2057158, “Synthesis and cytotoxic activity of 4-N-carboxybutyl-5-fluorocytosyl-Arg-Gln-Trp-Arg-Arg-Trp-Trp-Gln-Arg-NH₂” (Bioorg Med Chem Lett, 2012).
Calls of active or inactive are those of the source.

Experiments:
Assay type in all cases: functional, cell-based
[1] = test system: HepG2; test: Cytotoxicity against human HepG2 cells at 4 to 10 mM after 24 hrs by MTT assay
[2] = test system: HepG2; test: Cytotoxicity in human HepG2 cells assessed as alteration of mitochondrial membrane potential by TMRM-fluorescence based high content screening assay
[3] = test system: HepG2; test: Cytotoxicity in human HepG2 cells assessed as elevation of intracellular calcium concentration by Fluo4AM-fluorescence based high content screening assay
[4] = test system: HepG2; test: Induction of apoptosis in human HepG2 cells assessed as morphological nuclear changes by Hoechst33342-staining based high content screening assay

Measured: Activity

Nc1nc(=O)[nH]cc1F
inactive: [1] | [2] | [3] | [4]
